Results published in ChEMBL document CHEMBL4002583, “Amino derivatives of platanic acid act as selective and potent inhibitors of butyrylcholinesterase” (Eur J Med Chem, 2017).
pIC50, pKi: −log10 of the molar value.

Experiments:
[1] = biological target: T1, Cholinesterase (Equus caballus, UniProt P81908); assay: Competitive inhibition of equine serum BChE using butyrylthiocholine iodide as substrate preincubated for 20 mins followed by substrate addition measured every 1 min for 30 mins by Dixon plot method
[2] = biological target: T2, Acetylcholinesterase (Electrophorus electricus, UniProt O42275); assay: Competitive inhibition of electric eel AChE using acetylthiocholine iodide as substrate preincubated for 20 mins followed by substrate addition measured every 1 min for 30 mins by Dixon plot method
[3] = biological target: T1, Cholinesterase; assay: Uncompetitive inhibition of equine serum BChE using butyrylthiocholine iodide as substrate preincubated for 20 mins followed by substrate addition measured every 1 min for 30 mins by Cornish-Bowden plot method
[4] = Selectivity ratio of Ki for electric eel AChE to Ki for equine serum BChE
[5] = Chemical stability in TRIS buffer at pH 8 measured over 2880 mins by HPLC method; type: physicochemical; settings: pH 8, 48 h
[6] = biological target: T2, Acetylcholinesterase; assay: Uncompetitive inhibition of electric eel AChE using acetylthiocholine iodide as substrate preincubated for 20 mins followed by substrate addition measured every 1 min for 30 mins by Cornish-Bowden plot method
[7] = Chemical stability in TRIS buffer at pH 8 measured over 2880 mins in presence of BChE by HPLC method; type: physicochemical; settings: pH 8, 48 h
[8] = biological target: Acetylcholinesterase (Homo sapiens, UniProt P22303); assay: Inhibition of […] using acetyl-(beta-methyl)thiocholine as substrate preincubated for 30 mins followed by substrate addition measured after 25 mins by spectrophotometric method
[9] = biological target: T3, Cholinesterase (Homo sapiens, UniProt P06276); assay: Inhibition of human serum BChE using butyrylthiocholine iodide as substrate by Ellman's method
[10] = biological target: T3, Cholinesterase; assay: Inhibition of […] using S-butyrylthiocholine as substrate preincubated for 30 mins followed by substrate addition measured after 25 mins by spectrophotometric method
[11] = Selectivity ratio of Ki for equine serum BChE to Ki for electric eel AChE

T2 sequence (O42275 whole entry): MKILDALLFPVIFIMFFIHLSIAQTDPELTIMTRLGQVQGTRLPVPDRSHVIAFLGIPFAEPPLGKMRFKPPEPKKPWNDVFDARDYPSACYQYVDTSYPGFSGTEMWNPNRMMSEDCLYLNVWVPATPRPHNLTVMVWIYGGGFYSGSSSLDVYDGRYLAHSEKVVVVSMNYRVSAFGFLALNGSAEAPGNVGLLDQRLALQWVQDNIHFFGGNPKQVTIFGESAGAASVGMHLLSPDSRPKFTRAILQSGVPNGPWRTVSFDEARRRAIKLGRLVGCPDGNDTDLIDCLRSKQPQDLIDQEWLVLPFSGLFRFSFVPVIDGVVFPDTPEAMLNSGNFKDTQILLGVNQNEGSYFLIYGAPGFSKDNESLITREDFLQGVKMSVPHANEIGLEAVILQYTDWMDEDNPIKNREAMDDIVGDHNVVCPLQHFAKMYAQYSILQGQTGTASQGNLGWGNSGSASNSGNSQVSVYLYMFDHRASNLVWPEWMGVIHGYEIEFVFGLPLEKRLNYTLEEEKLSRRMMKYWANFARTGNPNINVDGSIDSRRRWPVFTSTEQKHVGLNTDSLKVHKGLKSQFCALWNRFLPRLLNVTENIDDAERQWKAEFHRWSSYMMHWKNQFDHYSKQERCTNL
T1 sequence (P81908 whole entry): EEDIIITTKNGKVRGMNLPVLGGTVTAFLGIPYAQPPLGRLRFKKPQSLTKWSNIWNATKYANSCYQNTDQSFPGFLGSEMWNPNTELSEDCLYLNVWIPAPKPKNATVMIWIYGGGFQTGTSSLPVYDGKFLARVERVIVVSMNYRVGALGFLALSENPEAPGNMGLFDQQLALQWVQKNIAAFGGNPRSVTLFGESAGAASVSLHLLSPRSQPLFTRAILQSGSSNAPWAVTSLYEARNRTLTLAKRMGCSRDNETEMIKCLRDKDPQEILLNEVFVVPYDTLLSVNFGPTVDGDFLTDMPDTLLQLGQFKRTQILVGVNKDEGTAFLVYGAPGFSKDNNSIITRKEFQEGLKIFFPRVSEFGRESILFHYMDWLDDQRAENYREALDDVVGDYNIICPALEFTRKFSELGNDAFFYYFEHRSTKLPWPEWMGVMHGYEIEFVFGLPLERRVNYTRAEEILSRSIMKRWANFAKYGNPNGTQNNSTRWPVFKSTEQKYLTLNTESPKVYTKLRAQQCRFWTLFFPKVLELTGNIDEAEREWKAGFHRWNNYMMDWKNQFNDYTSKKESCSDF
T3 sequence (P06276 whole entry): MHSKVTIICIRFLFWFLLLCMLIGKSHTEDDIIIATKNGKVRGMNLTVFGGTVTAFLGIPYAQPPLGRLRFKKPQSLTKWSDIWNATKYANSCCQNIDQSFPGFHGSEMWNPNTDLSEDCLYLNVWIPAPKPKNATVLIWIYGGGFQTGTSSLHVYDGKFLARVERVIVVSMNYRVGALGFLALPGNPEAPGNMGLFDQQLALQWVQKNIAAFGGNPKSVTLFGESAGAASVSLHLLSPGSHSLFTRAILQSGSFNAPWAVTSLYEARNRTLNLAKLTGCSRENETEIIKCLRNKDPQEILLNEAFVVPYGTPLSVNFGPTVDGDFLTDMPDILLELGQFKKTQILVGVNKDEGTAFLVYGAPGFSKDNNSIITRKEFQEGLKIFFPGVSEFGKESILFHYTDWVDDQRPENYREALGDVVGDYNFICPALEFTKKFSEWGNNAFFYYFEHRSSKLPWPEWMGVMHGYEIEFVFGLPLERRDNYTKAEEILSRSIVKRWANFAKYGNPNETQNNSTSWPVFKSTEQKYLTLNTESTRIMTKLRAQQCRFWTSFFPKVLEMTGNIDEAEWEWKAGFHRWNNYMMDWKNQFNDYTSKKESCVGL
Sequence of Acetylcholinesterase (Homo sapiens, UniProt P22303) (P22303 whole entry): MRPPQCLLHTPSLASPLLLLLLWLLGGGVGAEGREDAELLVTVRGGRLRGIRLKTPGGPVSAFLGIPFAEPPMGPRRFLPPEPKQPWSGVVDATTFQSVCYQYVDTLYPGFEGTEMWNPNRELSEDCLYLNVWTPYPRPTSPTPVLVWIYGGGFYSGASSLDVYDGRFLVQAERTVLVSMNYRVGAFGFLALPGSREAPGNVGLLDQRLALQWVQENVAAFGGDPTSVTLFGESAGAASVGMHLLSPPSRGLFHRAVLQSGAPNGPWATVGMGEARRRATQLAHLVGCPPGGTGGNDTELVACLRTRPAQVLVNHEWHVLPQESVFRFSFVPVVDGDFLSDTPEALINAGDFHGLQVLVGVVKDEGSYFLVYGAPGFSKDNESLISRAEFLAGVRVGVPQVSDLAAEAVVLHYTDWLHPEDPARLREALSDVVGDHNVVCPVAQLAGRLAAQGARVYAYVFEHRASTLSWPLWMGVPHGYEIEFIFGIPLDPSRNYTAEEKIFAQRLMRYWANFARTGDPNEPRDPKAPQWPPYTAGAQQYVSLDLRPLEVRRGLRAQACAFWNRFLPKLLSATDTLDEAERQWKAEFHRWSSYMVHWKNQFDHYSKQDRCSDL

## CCC(=O)O/N=C(\C)[C@@H]1CC[C@]2(C(=O)OC)CC[C@]3(C)[C@H](CC[C@@H]4[C@@]5(C)CC[C@H](OC(C)=O)C(C)(C)[C@@H]5CC[C@]43C)[C@@H]12
[1]
  pKi: < 4.52
[2]
  pKi: < 4.52

## COC(=O)[C@]12CC[C@@H]([C@@H](C)N)[C@@H]1[C@H]1CC[C@@H]3[C@@]4(C)CC[C@H](OC(C)=O)C(C)(C)[C@@H]4CC[C@@]3(C)[C@]1(C)CC2
[1]
  pKi: 7.05
[3]
  pKi: 7.30
[2]
  pKi: < 5.40
[4]
  Ratio Ki: > 44

## C[C@@H](N)[C@@H]1CC[C@]2(C(=O)OCc3ccccc3)CC[C@]3(C)[C@H](CC[C@@H]4[C@@]5(C)CC[C@H](O)C(C)(C)[C@@H]5CC[C@]43C)[C@@H]12
[1]
  pKi: 7.15
[3]
  pKi: 6.72
[5]
  Stability: Stable
[6]
  pKi: 4.32
[7]
  Stability: Stable
[2]
  pKi: 4.96
[4]
  Ratio Ki: 157

## CC(=O)O[C@H]1CC[C@]2(C)[C@H]3CC[C@@H]4[C@H]5[C@H](/C(C)=N/O)CC[C@]5(C(=O)O)CC[C@@]4(C)[C@]3(C)CC[C@H]2C1(C)C
[5]
  Stability: Stable
[7]
  Stability: Stable

## CC(C)c1ccc(NC(=O)Oc2ccc3c(c2)[C@]2(C)CCN[C@@H]2N3)cc1
[8]
  pIC50: 6.96
[9]
  pKi: 9.88
[10]
  pIC50: 9.00

## CC(=O)O[C@H]1CC[C@]2(C)[C@H]3CC[C@@H]4[C@H]5[C@H](C(C)=O)CC[C@]5(C(=O)NCCN)CC[C@@]4(C)[C@]3(C)CC[C@H]2C1(C)C
[1]
  pKi: 4.92
[3]
  pKi: 4.77
[6]
  pKi: 5.17
[2]
  pKi: 5.51
[11]
  Ratio Ki: 3.9

## CC(=O)O[C@H]1CC[C@]2(C)[C@H]3CC[C@@H]4[C@H]5[C@H](C(C)=O)CC[C@]5(C(N)=O)CC[C@@]4(C)[C@]3(C)CC[C@H]2C1(C)C
[1]
  pKi: < 5.00
[6]
  pKi: 4.96
[2]
  pKi: 5.09
[11]
  Ratio Ki: > 1.2

## COC(=O)[C@]12CC[C@@H](C(C)=O)[C@@H]1[C@H]1CC[C@@H]3[C@@]4(C)CC[C@H](O)C(C)(C)[C@@H]4CC[C@@]3(C)[C@]1(C)CC2
[1]
  pKi: < 5.40
[2]
  pKi: 6.12
[11]
  Ratio Ki: > 5

## COC(=O)[C@]12CC[C@@H](/C(C)=N/OC(C)=O)[C@@H]1[C@H]1CC[C@@H]3[C@@]4(C)CC[C@H](OC(C)=O)C(C)(C)[C@@H]4CC[C@@]3(C)[C@]1(C)CC2
[1]
  pKi: < 4.82
[2]
  pKi: < 4.82

## CC(=O)OC[C@]12CC[C@@H]([C@@H](C)N)[C@@H]1[C@H]1CC[C@@H]3[C@@]4(C)CC[C@H](OC(C)=O)C(C)(C)[C@@H]4CC[C@@]3(C)[C@]1(C)CC2
[1]
  pKi: 7.22
[3]
  pKi: 6.43
[2]
  pKi: 5.35
[4]
  Ratio Ki: 75

## CC(=O)[C@@H]1CC[C@]2(C(=O)NCCN)CC[C@]3(C)[C@H](CC[C@@H]4[C@@]5(C)CC[C@H](O)C(C)(C)[C@@H]5CC[C@]43C)[C@@H]12
[1]
  pKi: 5.08
[3]
  pKi: < 3.96
[6]
  pKi: 5.01
[2]
  pKi: 5.14
[11]
  Ratio Ki: 1.2

## COC(=O)[C@]12CC[C@@H](NC(C)=O)[C@@H]1[C@H]1CC[C@@H]3[C@@]4(C)CC[C@H](OC(C)=O)C(C)(C)[C@@H]4CC[C@@]3(C)[C@]1(C)CC2
[1]
  pKi: < 4.70
[2]
  pKi: 4.85
[11]
  Ratio Ki: > 1.4

## C[C@@H](N)[C@@H]1CC[C@]2(CO)CC[C@]3(C)[C@H](CC[C@@H]4[C@@]5(C)CC[C@H](O)C(C)(C)[C@@H]5CC[C@]43C)[C@@H]12
[1]
  pKi: 6.85
[3]
  pKi: 5.72
[6]
  pKi: 3.98
[2]
  pKi: 4.28
[4]
  Ratio Ki: 378

## COC(=O)[C@]12CC[C@@H]([C@@H](C)NC(C)=O)[C@@H]1[C@H]1CC[C@@H]3[C@@]4(C)CC[C@H](OC(C)=O)C(C)(C)[C@@H]4CC[C@@]3(C)[C@]1(C)CC2
[1]
  pKi: < 5.40
[2]
  pKi: < 5.40

## CC(=O)O[C@H]1CC[C@]2(C)[C@H]3CC[C@@H]4[C@H]5[C@H](C(C)=O)CC[C@]5(C(=O)OCc5ccccc5)CC[C@@]4(C)[C@]3(C)CC[C@H]2C1(C)C
[1]
  pKi: 4.48
[3]
  pKi: < 3.40
[6]
  pKi: 6.68
[2]
  pKi: 7.05
[11]
  Ratio Ki: 368

## COC(=O)[C@]12CC[C@@H]([C@H](C)NC(C)=O)[C@@H]1[C@H]1CC[C@@H]3[C@@]4(C)CC[C@H](OC(C)=O)C(C)(C)[C@@H]4CC[C@@]3(C)[C@]1(C)CC2
[1]
  pKi: < 4.40
[6]
  pKi: 4.34
[2]
  pKi: 4.93
[11]
  Ratio Ki: > 3.4

## CC(=O)O[C@H]1CC[C@]2(C)[C@H]3CC[C@@H]4[C@H]5[C@H]([C@@H](C)N)CC[C@]5(C(=O)O)CC[C@@]4(C)[C@]3(C)CC[C@H]2C1(C)C
[1]
  pKi: 7.00
[3]
  pKi: 5.56
[2]
  pKi: 4.68
[4]
  Ratio Ki: 209

## CC(=O)[C@@H]1CC[C@]2(C(=O)OCc3ccccc3)CC[C@]3(C)[C@H](CC[C@@H]4[C@@]5(C)CC[C@@H](N)C(C)(C)[C@@H]5CC[C@]43C)[C@@H]12
[1]
  pKi: 5.74
[3]
  pKi: 5.22
[6]
  pKi: < 4.05
[2]
  pKi: 4.69
[4]
  Ratio Ki: 11

## CC(=O)[C@@H]1CC[C@]2(N)CC[C@]3(C)[C@H](CC[C@@H]4[C@@]5(C)CC[C@H](O)C(C)(C)[C@@H]5CC[C@]43C)[C@@H]12
[1]
  pKi: 5.19
[3]
  pKi: 4.41
[6]
  pKi: < 3.92
[2]
  pKi: 4.68
[4]
  Ratio Ki: 3.3

## CC(=O)O[C@H]1CC[C@]2(C)[C@H]3CC[C@@H]4[C@H]5[C@H](C(C)=O)CC[C@]5(C(=O)O)CC[C@@]4(C)[C@]3(C)CC[C@H]2C1(C)C
[1]
  pKi: < 5.00
[2]
  pKi: 5.05
[11]
  Ratio Ki: > 1.1

## CC(=O)[C@@H]1CC[C@]2(C(=O)OCc3ccccc3)CC[C@]3(C)[C@H](CC[C@@H]4[C@@]5(C)CCC(=O)C(C)(C)[C@@H]5CC[C@]43C)[C@@H]12
[1]
  pKi: < 5.00
[6]
  pKi: 5.34
[2]
  pKi: 5.58
[11]
  Ratio Ki: > 3.8

## CC(=O)[C@@H]1CC[C@]2(C(=O)OCc3ccccc3)CC[C@]3(C)[C@H](CC[C@@H]4[C@@]5(C)CC[C@H](O)C(C)(C)[C@@H]5CC[C@]43C)[C@@H]12
[1]
  pKi: < 5.00
[6]
  pKi: 5.39
[2]
  pKi: 6.23
[11]
  Ratio Ki: > 17

## CC(=O)[C@@H]1CC[C@]2(C(=O)O)CC[C@]3(C)[C@H](CC[C@@H]4[C@@]5(C)CC[C@H](O)C(C)(C)[C@@H]5CC[C@]43C)[C@@H]12 [PLATANIC ACID]
[1]
  pKi: < 4.30
[6]
  pKi: 4.43
[2]
  pKi: 4.50
[11]
  Ratio Ki: > 1.6

## COC(=O)[C@]12CC[C@@H]([C@H](C)N)[C@@H]1[C@H]1CC[C@@H]3[C@@]4(C)CC[C@H](OC(C)=O)C(C)(C)[C@@H]4CC[C@@]3(C)[C@]1(C)CC2
[1]
  pKi: 6.64
[3]
  pKi: 5.41
[6]
  pKi: < 4.10
[2]
  pKi: < 4.40
[4]
  Ratio Ki: > 173

## CC(=O)O[C@H]1CC[C@]2(C)[C@H]3CC[C@@H]4[C@H]5[C@H]([C@H](C)N)CC[C@]5(C(=O)OCc5ccccc5)CC[C@@]4(C)[C@]3(C)CC[C@H]2C1(C)C
[1]
  pKi: 6.42
[3]
  pKi: 5.17
[6]
  pKi: 4.47
[2]
  pKi: 4.97
[4]
  Ratio Ki: 28

## CC(=O)O[C@H]1CC[C@]2(C)[C@H]3CC[C@@H]4[C@H]5[C@H]([C@@H](C)N)CC[C@]5(C(=O)OCc5ccccc5)CC[C@@]4(C)[C@]3(C)CC[C@H]2C1(C)C
[1]
  pKi: 8.00
[3]
  pKi: 6.40
[6]
  pKi: 4.77
[2]
  pKi: 5.07
[4]
  Ratio Ki: 851

## CC(=O)[C@@H]1CC[C@]2(C(=O)OCc3ccccc3)CC[C@]3(C)[C@H](CC[C@@H]4[C@@]5(C)CC[C@H](N)C(C)(C)[C@@H]5CC[C@]43C)[C@@H]12
[1]
  pKi: 6.25
[3]
  pKi: 5.46
[6]
  pKi: 4.12
[2]
  pKi: 4.87
[4]
  Ratio Ki: 24
